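The compound was tested at five concentrations on cells cultured in 96-well plates, with a 48-hour exposure period. TGI marks complete inhibition of growth.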
Legend:
Assay in all cases: growth of human tumour cells (NCI), 48 h
786-0 renal = system: 786-0 renal
A549 NSCLC = system: A549 NSCLC
ACHN renal = system: ACHN renal
BT-549 breast = system: BT-549 breast
CCRF-CEM leukemia = system: CCRF-CEM leukemia
DU-145 prostate = system: DU-145 prostate
EKVX NSCLC = system: EKVX NSCLC
HL-60(TB) leukemia = system: HL-60(TB) leukemia
HOP-92 NSCLC = system: HOP-92 NSCLC
HS 578T breast = system: HS 578T breast
HT29 colon = system: HT29 colon
IGROV1 ovarian = system: IGROV1 ovarian
K-562 leukemia = system: K-562 leukemia
KM12 colon = system: KM12 colon
LOX IMVI melanoma = system: LOX IMVI melanoma
M14 melanoma = system: M14 melanoma
MCF7 breast = system: MCF7 breast
MDA-MB-435 = system: MDA-MB-435
MOLT-4 leukemia = system: MOLT-4 leukemia
NCI-H226 lung = system: NCI-H226 lung
NCI-H23 lung = system: NCI-H23 lung
NCI-H460 lung = system: NCI-H460 lung
NCI-H522 lung = system: NCI-H522 lung
OVCAR-3 ovarian = system: OVCAR-3 ovarian
OVCAR-4 ovarian = system: OVCAR-4 ovarian
OVCAR-5 ovarian = system: OVCAR-5 ovarian
OVCAR-8 ovarian = system: OVCAR-8 ovarian
PC-3 prostate = system: PC-3 prostate
RXF 393 renal = system: RXF 393 renal
SF-268 CNS = system: SF-268 CNS
SF-295 CNS = system: SF-295 CNS
SF-539 CNS = system: SF-539 CNS
SK-MEL-5 melanoma = system: SK-MEL-5 melanoma
SNB-19 CNS = system: SNB-19 CNS
SNB-75 CNS = system: SNB-75 CNS
SR leukemia = system: SR leukemia
SW-620 colon = system: SW-620 colon
TK-10 renal = system: TK-10 renal
U251 CNS = system: U251 CNS
UACC-257 melanoma = system: UACC-257 melanoma
UACC-62 melanoma = system: UACC-62 melanoma
UO-31 renal = system: UO-31 renal

For `COc1cc(C2C(Cl)C(=O)N2NC(=O)c2ccccc2O)cc(OC)c1OC` (configuration not stated), the TGI (786-0 renal) was > 10 µM, the TGI (A549 NSCLC) was > 10 µM and the TGI (ACHN renal) was > 10 µM. The TGI (BT-549 breast) was > 10 µM, the TGI (CCRF-CEM leukemia) was > 10 µM and the TGI (DU-145 prostate) was 1.91 µM. The TGI (EKVX NSCLC) was > 10 µM, the TGI (HL-60(TB) leukemia) was 5.96 µM and the TGI (HOP-92 NSCLC) was > 10 µM. For the same compound, the TGI (HS 578T breast) was > 10 µM, the TGI (HT29 colon) was 9.06 µM and the TGI (IGROV1 ovarian) was > 10 µM. For the same compound, the TGI (K-562 leukemia) was > 10 µM, the TGI (KM12 colon) was > 10 µM and the TGI (LOX IMVI melanoma) was > 10 µM. For the same compound, the TGI (M14 melanoma) was > 10 µM, the TGI (MCF7 breast) was 7.36 µM and the TGI (MDA-MB-435) was > 10 µM. The TGI (MOLT-4 leukemia) was > 10 µM, the TGI (NCI-H226 lung) was > 10 µM and the TGI (NCI-H23 lung) was 9.95 µM. For the same compound, the TGI (NCI-H460 lung) was > 10 µM, the TGI (NCI-H522 lung) was 8.21 µM and the TGI (OVCAR-3 ovarian) was > 10 µM. The TGI (OVCAR-4 ovarian) was > 10 µM, the TGI (OVCAR-5 ovarian) was > 10 µM and the TGI (OVCAR-8 ovarian) was > 10 µM. For the same compound, the TGI (PC-3 prostate) was > 10 µM, the TGI (RXF 393 renal) was > 10 µM and the TGI (SF-268 CNS) was > 10 µM. For the same compound, the TGI (SF-295 CNS) was 8.43 µM, the TGI (SF-539 CNS) was > 10 µM and the TGI (SK-MEL-5 melanoma) was > 10 µM. The TGI (SNB-19 CNS) was > 10 µM, the TGI (SNB-75 CNS) was > 10 µM and the TGI (SR leukemia) was > 10 µM. For the same compound, the TGI (SW-620 colon) was > 10 µM, the TGI (TK-10 renal) was > 10 µM and the TGI (U251 CNS) was > 10 µM. For the same compound, the TGI (UACC-257 melanoma) was 7.46 µM, the TGI (UACC-62 melanoma) was > 10 µM and the TGI (UO-31 renal) was > 10 µM.

From PubChem BioAssay (NCI)
